From US20240181000A1, “LGG-DERIVED PEPTIDES AND METHODS OF USE THEREOF” (Ohio State Innovation Foundation, priority 2021, published 2024)
No end group written: not given here.

Key:
APEC O78 = assay type: cell-based, E. coli
Experimental: Anti-APEC activity determination: The anti-APEC activity of peptides was determined in LB broth following CLSI guidelines. Briefly, overnight grown APEC O78 was adjusted to 5×10^5 CFU/mL concentration in fresh LB media. One-hundred microliters of APEC suspension was aliquoted into the wells of the 96-well plate. Peptides were added to the wells at 6 mM and 12 mM concentrations and incubated at 37° C. in TECAN Sunrise™ absorbance microplate reader with kinetic absorbance measurement set at every 30 mins for 12 h. Sterile media and DMSO (solvent) were used as controls. The growth inhibitory activity of the peptides against APEC was calculated using the formula: (OD600 DMSO treated well−OD600 peptide treated well)/OD600 DMSO treated well×100%.
The minimum inhibitory concentration (MIC) was determined for selected peptides (P1, P2, P3, and P4) using similar assay as above. Peptides were added to the wells of the 96-well plate at 6 mM, 9 mM, 12 mM, 15 mM, and 18 mM concentrations. The peptide concentration at which there is no visible APEC growth (no OD increase) was determined as MIC. Two independent experiments were conducted.
Arginine and lysine substituted peptide analogues: The non-essential amino acid residues identified in each peptide were substituted with arginine/lysine to test whether these substitutions enhance the anti-APEC activity of peptides. The MICs of arginine and lysine substituted peptide analogues ([…] (SEQ ID NO:37), […] (SEQ ID NO:38), […] (SEQ ID NO:39), KDENK (SEQ ID NO:41), PDEKK (SEQ ID NO:42), KDEKK (SEQ ID NO:43), KHTAPK (SEQ ID NO:45), VKTAPK (SEQ ID NO:46), VHTKPK (SEQ ID NO:47), and KKTKPK (SEQ ID NO:48)) were determined as above and compared with original peptides.

[1] = tested on: Salmonella enterica subsp. enterica serovar Enteritidis (SE); assay type: cell-based; conditions: subsp. enterica serovar Enteritidis (SE)
Experimental: MIC was determined by selecting peptide concentration at which there is no increased growth (no increase in OD), given indication of no ST growth. An independent repeat experiment was conducted.
Heat and protease tolerance of peptides: P1, P2, and P4 were heated for 6 minutes at 86° C. or treated with protease proteinase K, 200 μg/mL at 50° C. for 30 minutes. After which, the treated and/or heated peptides at their respective MICs were evaluated in the inhibition assay with Salmonella. The protocol from above was repeated in the Tecan with the same controls.
To analyze the perceived efficacy of arginine and lysine substitutes reported in previous studies, specific amino acid residues in P1 and P2 were replaced with lysine or arginine to test if the alliterations enhanced anti-Salmonella (ST and SE) activity. The MICs of the arginine or lysine substituted peptides ([…] (SEQ ID NO:37), […] (SEQ ID NO:38), […] (SEQ ID NO:39), KDENK (SEQ ID NO:41), PDEKK (SEQ ID NO:42), KDEKK (SEQ ID NO:43), KHTAPK (SEQ ID NO:45)) were determined as described early. Two independent experiments were conducted to ensure accuracy.

multiple APEC serotypes = assay type: cell-based, E. coli
Experimental: Anti-APEC spectrum determination: Peptides (P1, P2, and P3) were tested against multiple APEC serotypes/strains to determine their spectrum of activity. Peptides were added at their MICs and the growth inhibitory activity of the peptides was determined as described above.

APEC = assay: Kinetic time-inhibition assay of synthesized peptides; assay type: cell-based, E. coli; conditions: 12 mM, 12 h
Experimental: Peptides were added to the APEC suspension in a 96-well plate, and plate was incubated in TECAN Sunrise™ absorbance microplate reader at 37° C. with OD600 measurement set at every 30 min for 12 hr. The sequences in FIG. 7 are […] (SEQ ID NO: 5), […] (SEQ ID NO: 18), […] (SEQ ID NO: 21), […] (SEQ ID NO: 26), and […] (SEQ ID NO: 32).
The five common highly abundant peptides in CFSs of both L. rhamnosus GG and B. lactis Bb12 ([…] (SEQ ID NO:5), […] (SEQ ID NO:18), […] (SEQ ID NO:21), […] (SEQ ID NO:26) and […] (SEQ ID NO:32)) were synthesized (GenScript, NJ, USA) and tested for anti-APEC activity by conducting kinetic time-inhibition assay as described previously. Briefly, peptides dissolved in dimethyl sulfoxide (DMSO) at 200 mM concentrations were added (12 mM; final concentration of 6% DMSO) to APEC suspension (10^5 CFU/mL; LB media) in a 96-well plate. The plate was then incubated in TECAN Sunrise™ absorbance microplate reader (NC, USA) at 37° C. with OD600 measurement set at every 30 mins for 12 h. Untreated APEC (0% DMSO) and APEC treated with 6% DMSO were included as controls. […] Three independent experiments were conducted.

Substance	MIC (APEC O78) [mM]	other results
NPRRRERR	12	
NPRRQRRR		MIC against SE [1]: >18 mM
VHTAPK [Peptide P3, VHTAPK]	18	Growth inhibition against APEC serotypes (multiple APEC serotypes): 39.4-88.4%; MIC50 (APEC O78): 16.2 mM
AESSDTNLVNAKAA [PN-2]		Inhibition of APEC growth (APEC): slightly inhibitory
NPRRQERR	12	
KHTAPK [KHTAPK]	>18	
VKTAPK [VKTAPK]	>18	
KDEKK [KDEKK]	12	
NPSRRERR	15	
VHTKPK [VHTKPK]	>18	
KKTKPK [KKTKPK]	>18	
PDEKK [PDEKK]	9	MIC against SE [1]: 12 mM
AFDNTDTSLDSTFKSA [PN-4]		Inhibition of APEC growth (APEC): completely inhibitory
KDENK [KDENK]	9	
FSAVALSAVALSKPGHVNA [PN-1]		Inhibition of APEC growth (APEC): did not affect the APEC growth
